Source: patent publication US20090163474A1, “FXR Agonists for the Treatment of Nonalcoholic Fatty Liver and Cholesterol Gallstone Diseases” (Wyeth, priority 2007, published 2009)
Where two headings read alike, the source gives them in different places.

Tests used:
[1] = test system: C57BL/6 mice fed a Paigen diet; assay: Paigen diet fed mice: serum, liver gene expression and liver histology; assay type: in vivo; details: 30 mg/kg orally once a day for 4 weeks
Description: Male C57BL/6 mice were fed a standard chow diet or a Paigen diet (TestDiet 32350 containing 7.5% Cocoa Butter, 1.25% cholesterol, and 0.5% cholic acid). Paigen diet fed mice were administered vehicle or 30 mg/kg FXR agonist, Compound A (isopropyl 3-(3,4-difluorobenzoyl)-1,1-dimethyl-1,2,3,6-tetrahydroazepino[4,5-b]indole-5-carboxylate) orally once a day for 4 weeks. Three hours after the final treatment, mice were euthanized and blood and liver were collected for analyses.
Real-time RT PCR analysis of liver RNA was performed. FIGS. 3A, 3B, and 3C show the expression levels of vascular cell adhesion molecule 1 (VCAM-1), intercellular adhesion molecule-1 (ICAM-1), and tumor necrosis factor α (TNFα). Expression levels were normalized to GAPDH, and the mean level of expression of each gene in mice fed a standard chow diet was defined as 1.0. 6 mice were tested in each group. Data are presented as the mean±SE.
Male C57BL/6 mice were fed a chow diet or a Paigen diet. Paigen fed mice were administered vehicle or 30 mg/kg Compound A orally once a day for 4 weeks. Three hours after the final treatment, mice were euthanized, and histological analysis of livers was performed. Frozen liver sections (5 μm) were prepared and stained with Oil Red O, hematoxylin and eosin (H&E), and Masson's trichrome (Trichrome).
Male C57BL/6 mice were fed a chow diet or a Paigen diet. Paigen fed mice were administered vehicle or 30 mg/kg Compound A orally once a day for 4 weeks. Three hours after the final treatment, mice were euthanized, and real-time RT PCR analysis of liver RNA was performed.

[2] = test system: Wildtype mice challenged with CCl4; assay: CCl4 induced acute liver injury and fibrosis in mice; assay type: in vivo; details: 30 mg/kg for 4 days, 30 μl/kg CCl4 on day 3, 24 hours
Description: Wildtype mice were treated with 30 mg/kg Compound A or vehicle for 4 days. On day 3, mice were challenged with 30 μl/kg of carbon tetrachloride (CCl4) to induce acute liver injury. After 24 hours, mice were euthanized and their livers were harvested for analysis.

[3] = test system: C57Bl/6 mice fed a MCD diet (preformed NASH); assay: Preformed NASH in MCD diet fed mice; assay type: in vivo; details: MCD diet 2 weeks
Source text: C57Bl/6 mice were fed a MCD diet for 2 weeks to induce the development of NASH to study the effect of Compound A treatment on preformed NASH. These mice were then maintained on the MCD diet while being treated with vehicle or Compound A. Mice were euthanized 2 weeks (2 w), and 4 weeks (4 w) after the beginning of treatment with vehicle or Compound A for analysis. As controls, mice were fed a chow diet or fed a MCD diet for 2 weeks, and then euthanized for analysis.

[4] = test system: wildtype (WT) mice fed a MCD diet; assay: MCD diet, wildtype mice (WT vs FXRKO study); assay type: in vivo; details: 30 mg/kg orally once a day for 4 weeks
Description: Mice were fed a standard chow diet or a MCD diet and treated with either vehicle or 30 mg/kg Compound A orally once a day for 4 weeks.

mice fed a Paigen diet = assay: Gallstone formation in Paigen diet fed mice; assay type: in vivo; details: 30 mg/kg orally once a day for 4 weeks
Description: To study gallstone formation, gallbladders were harvested from mice fed a Paigen diet and administered vehicle or 30 mg/kg Compound A orally once a day for 4 weeks.

Hep3B cells = assay: IL-6 induced CRP secretion in Hep3B cells; assay type: cell-based, Human; details: for IC50: Homo sapiens, Hep3B, read-out: IC50 of inhibitory effect on CRP secretion
Description: Human hepatoma cells, Hep3B secrete the acute phase protein, C-reactive protein (CRP) upon IL-6 treatment. Cells were cotreated with Compound A to determine if Compound A could decrease IL-6 induced CRP secretion.
FIGS. 24A, 24B, and 24C show the levels of CRP secretion (pg/ml) in Hep3B cells after stimulation with IL-6 (10 ng/ml), or IL-6 (50 ng/ml), or IL-6 (10 ng/ml & IL-1β 20 ng/ml), and treated with vehicle (DMSO) or Compound A (5 μM). […] (*P<0.001, Hep3B/DMSO vs. Hep3B/Compound A).

[5] = RT PCR, normalized to GAPDH, p<0.0001
[6] = then 2-week (P<0.001) and 4-week (P<0.01) treatment on MCD diet
[7] = then 2-week and 4-week treatment on MCD diet, P<0.01

SMILES: CC(C)OC(=O)C1=CN(C(=O)c2ccc(F)c(F)c2)CC(C)(C)c2c1[nH]c1ccccc21 [Compound A, isopropyl 3-(3,4-difluorobenzoyl)-1,1-dimethyl-1,2,3,6-tetrahydroazepino[4,5-b]indole-5-carboxylate]
- Paigen diet induced liver damage (histological analyses) [1]: attenuated Paigen diet induced liver damage
- intracellular vacuoles characteristic of lipid droplets in liver (H&E and Trichrome) [1]: reduced the number and severity of the vacuoles
- liver BSEP expression level, increase ([1]; Paigen diet): 2.41 fold
- liver MDR2 expression level, increase ([1]; Paigen diet): 1.4 fold
- liver SHP expression level, increase ([1]; Paigen diet): 4.85 fold
- liver ICAM-1 expression level (Paigen diet induction) [1, 5]: significantly inhibited
- liver TNFα expression level (Paigen diet induction) [1, 5]: significantly inhibited
- liver VCAM-1 expression level (Paigen diet induction) [1, 5]: significantly inhibited
- inflammatory cholangitis with portal inflammation in liver ([1]; histology): significantly more severe in the livers of vehicle treated compared to Compound A treated mice
- serum alanine aminotransferase (ALT) activity level ([1]; mean±SE, vehicle 292.1±33.6 U/L, p<0.0001): 98.1±22.5 U/L
- serum level of MCP-1 vs vehicle ([1]; p<0.0001): significantly reduced
- neutral lipid accumulation in the liver (Oil Red O staining) ([1]; vs vehicle): reduction in neutral lipid accumulation
- liver FAS expression, further induction ([1]; vs vehicle treated Paigen diet mice, p<0.0001): 2.4 fold
- decrease of serum ALT levels vs vehicle ([2]; P<0.01): 60%
- decrease of serum AST levels vs vehicle ([2]; P<0.01): 75%
- decrease of liver TGF-β levels (TGF-β1 mRNA) vs vehicle ([2]; normalized to GAPDH, P<0.01): 30%
- decrease of liver a-SMA levels (mRNA) vs vehicle ([2]; normalized to GAPDH, P<0.01): 40%
- decrease of liver MMP-9 levels (mRNA) vs vehicle ([2]; normalized to GAPDH, P<0.04): 75%
- decrease of liver TIMP-1 levels (mRNA) vs vehicle ([2]; normalized to GAPDH, P<0.04): 60%
- liver Col1a2 gene expression level vs vehicle [3, 6]: significantly lowered
- liver MMP-2 gene expression level vs vehicle [3, 6]: significantly lowered
- liver TIMP-1 gene expression level vs vehicle [3, 6]: significantly lowered
- liver MCP-1 gene expression level vs vehicle [3, 7]: significantly lowered
- liver VCAM-1 gene expression level vs vehicle [3, 7]: significantly lowered
- serum level of ALT vs vehicle [3, 7]: significantly reduced
- serum level of AST vs vehicle [3, 7]: significantly reduced
- liver TIMP-1 gene expression level vs vehicle ([4]; P<0.001): reduction
- liver VCAM-1 gene expression level vs vehicle ([4]; P<0.001): decreasing
- liver Col1a2 expression level vs vehicle ([4]; P<0.01): reduction
- serum ALT levels vs vehicle ([4]; P<0.01): decreased
- cholesterol gallstones in gallbladders (gross morphology) (mice fed a Paigen diet): clearly visible in the gallbladders of vehicle but not Compound A treated mice
- Gallstone formation (incidence, mice with gallstones/mice) (mice fed a Paigen diet; vehicle 14/19): 0/20
- incidence of gallstone formation (mice fed a Paigen diet; vehicle 73.7%): 0%
- IL-6 induced CRP secretion (Hep3B cells; Compound A 5 μM, IL-6 10 ng/ml, IL-6 50 ng/ml, or IL-6 10 ng/ml & IL-1β 20 ng/ml, P<0.001 vs DMSO): inhibited
- IC50 (Hep3B cells; 10 ng/ml of IL-6): 0.224 µM
- IC50 (Hep3B cells; 50 ng/ml IL-6): 0.22 µM
